Experimental data from patent US7091026B2, “Artificial endonuclease” (University of Iowa Research Foundation, priority 2001, dated 2006).
Where no end group is shown, it is not given here.

What was measured:
[1] = tested on: supercoiled pBR322 plasmid DNA; test: DNA gel shift assay (agarose gel electrophoresis); assay type: binding; details: 5–25 μM ligand, in words
Description: DNA Gel Shift Assays. The affinity of EuP3, EuP2, and each free peptide for supercoiled plasmid DNA was examined by agarose gel electrophoresis. Plasmid (pBR322, New England Biolabs, Inc.) was incubated for 15 minutes at room temperature with increasing concentrations of each ligand (5–25 μM), prior to the addition of loading dye. Each lane contained 1 μg plasmid (50 μM base pairs) in 10 mM Tris buffer at pH 8.0.

[2] = target: P4a (34-residue synthetic chimeric peptide: alpha2 and alpha3 of engrailed, minus the last turn of alpha2 and the beta-turn, with calmodulin loop I); test: measured dissociation constant, method not stated; self-association of the Eu-bound peptide

Kdim (dimerization constant) [2] | Molecule | gel shift / affinity for supercoiled plasmid DNA [1] | gel shift / affinity for supercoiled plasmid DNA ([1]; listed as free metal)
– | [Cl][Eu]([Cl])[Cl] [EuCl3] | not | not seen
> 300 µM | TERRRFDKDGNGYISAAELRHVKIWFQNKRAKIK (also: also used as Eu(III)-bound form (EuP4a)) | – | –
